Results from US20100041089A1, “IMPROVED METHOD FOR DETECTING CHEMICAL […]” (priority 2006, published 2010).

System: yeast genes (expressed mRNA)
Test: DNA chip measurement of expressed mRNA of yeast genes after culture with a toxic chemical substance
Type: cell-based, Saccharomyces cerevisiae S288C
Settings: for level of expressed mRNA in the presence of chemical substance / level in the absence of chemical substance: cultured two hours with the chemical substance; for The level of expressed mRNA in the presence of chemical substance/The level of expressed mRNA in the absence of chemical substance: cultured two hours with substance
Experimental: Yeast (Saccharomyces cerevisiae S288C (a SUC2mal mel gap2 CUP1)) were cultured at 25° C. on YPD medium (yeast extract 1%, polypeptone 2%, glucose 2%). One of toxic chemical substances was added to the cell at logarithmic growth phase, and the cell was further cultured for two hours. Cell was cultured without any chemical substance in the same condition, and was used as a control. Concentrations of the chemical substances were defined to inhibit the growth of the yeast but not lead to death.
After the completion of cultivation, the culture was centrifuged to collect the cells. To the cells, sodium acetate buffer (50 mM sodium acetate, 10 mM EDTA, 1% SDS) was added, and the mixture was shaken at 65° C. for five minutes, followed by returning to room temperature, and obtaining the supernatant, which procedure was repeated two times. To the supernatant, ½ amount of a solution of phenol/chloroform (1:1) was added, and the mixture was centrifuged to give a supernatant, an equal amount of chloroform was added, and the mixture was centrifuged to give a supernatant. To the supernatant, an equal amount of isopropanol containing 0.3 M sodium acetate was added, and the mixture was allowed to stand at room temperature for 30 minutes, after which the mixture was centrifuged to give sediment of the whole RNAs. Seventy % ethanol was added to the sediment, and the mixture was again centrifuged to give sediment, which was then dried and dissolved in water. mRNA was isolated from the whole RNAs as followings. In view of the fact that a poly A chain is attached to the 3′ terminus of mRNA, a polynucleotide having a poly T structure which was immobilized on the surface of latex beads was used to trap the mRNA, and then the mRNA was washed and eluted with spine column (Oligotex-dT30<Super>mRNA Purification Kit, Takara). Reverse transcription of the mRNA was conducted with a reverse transcriptase (Super Script II Reverse Transcriptase; catalogue No. 18064-014, GibcoBRL) using fluorescence-labeled nucleotides to give cDNAs that were introduced with Cy3-dUTP or Cy5-dUTP during the reverse transcription.
The labeled cDNAs were dissolved in TE buffer (10 mM Tris-HCl/1 mM EDTA, pH 8.0), and the solution was dropped on the DNA chip containing the whole genes of yeast (DNA Chip Research Inc. Japan) so that the cDNAs were hybridized on the DNA chip at 65° C. for over 12 hours. The fluoresces intensity of the DNA chip was read with a scanner, and the ratio relative to the fluorescence intensity resulting from the absence of chemical substance was estimated as the following, which is shown in Tables 1 to 9.
In the Tables, “Intensity” indicated in the rightmost column is a value of the level of expressed mRNA of each gene in control cells as divided by the average level of the expressions of the whole genes. A gene of which mRNA level is lower in control, and is higher in cases of addition of chemical substance, is especially useful in the detection of toxic substances.
Here, when a ratio of an amount of mRNA expressed in the presence of the chemical substance to an amount of mRNA expressed in the absence of the chemical substance is two or more, then it is considered significant.

For `[Cl][Hg][Cl]` [(3), HgCl2], the “The level of expressed mRNA in the presence of chemical substance/The level of expressed mRNA in the absence of chemical substance, yeast gene YBR036C” value (gene YBR036C, Metabolism protein genes, DNA chip fluorescence ratio) was 1.8, the “The level of expressed mRNA in the presence of chemical substance/The level of expressed mRNA in the absence of chemical substance, yeast gene YBR298C” value (gene YBR298C, Metabolism protein genes, DNA chip fluorescence ratio) was 1.6 and the “The level of expressed mRNA in the presence of chemical substance/The level of expressed mRNA in the absence of chemical substance, yeast gene YDL067C” value (gene YDL067C (mitochondria-located protein gene), yeast cultured two hours with chemical substance, DNA chip fluorescence ratio to control) was 1.6. The “The level of expressed mRNA in the presence of chemical substance/The level of expressed mRNA in the absence of chemical substance, yeast gene YDL078C” value (gene YDL078C, Metabolism protein genes, DNA chip fluorescence ratio) was 1.2, the “The level of expressed mRNA in the presence of chemical substance/The level of expressed mRNA in the absence of chemical substance, yeast gene YDL215C” value (gene YDL215C, Metabolism protein genes, DNA chip fluorescence ratio) was 1.0 and the “The level of expressed mRNA in the presence of chemical substance/The level of expressed mRNA in the absence of chemical substance, yeast gene YDR079W” value (gene YDR079W (mitochondria-located protein gene), yeast cultured two hours with chemical substance, DNA chip fluorescence ratio to control) was 0.8. For the same compound, the “The level of expressed mRNA in the presence of chemical substance/The level of expressed mRNA in the absence of chemical substance, yeast gene YDR297W” value (gene YDR297W, Metabolism protein genes, DNA chip fluorescence ratio) was 0.8, the “The level of expressed mRNA in the presence of chemical substance/The level of expressed mRNA in the absence of chemical substance, yeast gene YDR387C” value (gene YDR387C, Metabolism protein genes, DNA chip fluorescence ratio) was 1.2 and the “The level of expressed mRNA in the presence of chemical substance/The level of expressed mRNA in the absence of chemical substance, yeast gene YGL035C” value (gene YGL035C, Metabolism protein genes, DNA chip fluorescence ratio) was 4.3. The “The level of expressed mRNA in the presence of chemical substance/The level of expressed mRNA in the absence of chemical substance, yeast gene YGR062C” value (gene YGR062C (mitochondria-located protein gene), yeast cultured two hours with chemical substance, DNA chip fluorescence ratio to control) was 0.7, the “The level of expressed mRNA in the presence of chemical substance/The level of expressed mRNA in the absence of chemical substance, yeast gene YGR287C” value (gene YGR287C, Metabolism protein genes, DNA chip fluorescence ratio) was 1.3 and the “The level of expressed mRNA in the presence of chemical substance/The level of expressed mRNA in the absence of chemical substance, yeast gene YJL070C” value (gene YJL070C, Metabolism protein genes, DNA chip fluorescence ratio) was 1.1. For the same compound, the “The level of expressed mRNA in the presence of chemical substance/The level of expressed mRNA in the absence of chemical substance, yeast gene YJL096W” value (gene YJL096W (mitochondria-located protein gene), yeast cultured two hours with chemical substance, DNA chip fluorescence ratio to control) was 0.8, the “The level of expressed mRNA in the presence of chemical substance/The level of expressed mRNA in the absence of chemical substance, yeast gene YJL180C” value (gene YJL180C (mitochondria-located protein gene), yeast cultured two hours with chemical substance, DNA chip fluorescence ratio to control) was 1.1 and the “The level of expressed mRNA in the presence of chemical substance/The level of expressed mRNA in the absence of chemical substance, yeast gene YKR009C” value (gene YKR009C, Metabolism protein genes, DNA chip fluorescence ratio) was 1.5. The “The level of expressed mRNA in the presence of chemical substance/The level of expressed mRNA in the absence of chemical substance, yeast gene YLR295C” value (gene YLR295C (mitochondria-located protein gene), yeast cultured two hours with chemical substance, DNA chip fluorescence ratio to control) was 1.1, the “The level of expressed mRNA in the presence of chemical substance/The level of expressed mRNA in the absence of chemical substance, yeast gene YLR351C” value (gene YLR351C, Metabolism protein genes, DNA chip fluorescence ratio) was 1.3 and the “The level of expressed mRNA in the presence of chemical substance/The level of expressed mRNA in the absence of chemical substance, yeast gene YLR375W” value (gene YLR375W, Metabolism protein genes, DNA chip fluorescence ratio) was 0.9. The “The level of expressed mRNA in the presence of chemical substance/The level of expressed mRNA in the absence of chemical substance, yeast gene YMR023C” value (gene YMR023C (mitochondria-located protein gene), yeast cultured two hours with chemical substance, DNA chip fluorescence ratio to control) was 0.5, the “The level of expressed mRNA in the presence of chemical substance/The level of expressed mRNA in the absence of chemical substance, yeast gene YMR267W” value (gene YMR267W (mitochondria-located protein gene), yeast cultured two hours with chemical substance, DNA chip fluorescence ratio to control) was 0.7 and the “The level of expressed mRNA in the presence of chemical substance/The level of expressed mRNA in the absence of chemical substance, yeast gene YMR267W” value (gene YMR267W, Metabolism protein genes, DNA chip fluorescence ratio) was 0.7. The “The level of expressed mRNA in the presence of chemical substance/The level of expressed mRNA in the absence of chemical substance, yeast gene YMR278W” value (gene YMR278W, Metabolism protein genes, DNA chip fluorescence ratio) was 1.4, the “The level of expressed mRNA in the presence of chemical substance/The level of expressed mRNA in the absence of chemical substance, yeast gene YMR293C” value (gene YMR293C, Metabolism protein genes, DNA chip fluorescence ratio) was 1.6 and the “The level of expressed mRNA in the presence of chemical substance/The level of expressed mRNA in the absence of chemical substance, yeast gene YNL073W” value (gene YNL073W (mitochondria-located protein gene), yeast cultured two hours with chemical substance, DNA chip fluorescence ratio to control) was 0.9. The “The level of expressed mRNA in the presence of chemical substance/The level of expressed mRNA in the absence of chemical substance, yeast gene YNR072W” value (gene YNR072W, Metabolism protein genes, DNA chip fluorescence ratio) was 0.5, the “The level of expressed mRNA in the presence of chemical substance/The level of expressed mRNA in the absence of chemical substance, yeast gene YOL096C” value (gene YOL096C, Metabolism protein genes, DNA chip fluorescence ratio) was 1.2 and the “The level of expressed mRNA in the presence of chemical substance/The level of expressed mRNA in the absence of chemical substance, yeast gene YOR180C” value (gene YOR180C, Metabolism protein genes, DNA chip fluorescence ratio) was 1.0. For the same compound, the “The level of expressed mRNA in the presence of chemical substance/The level of expressed mRNA in the absence of chemical substance, yeast gene YOR316C” value (gene YOR316C (mitochondria-located protein gene), yeast cultured two hours with chemical substance, DNA chip fluorescence ratio to control) was 1.5, the “The level of expressed mRNA in the presence of chemical substance/The level of expressed mRNA in the absence of chemical substance, yeast gene YOR363C” value (gene YOR363C, Metabolism protein genes, DNA chip fluorescence ratio) was 0.9 and the “The level of expressed mRNA in the presence of chemical substance/The level of expressed mRNA in the absence of chemical substance, yeast gene YPL040C” value (gene YPL040C (mitochondria-located protein gene), yeast cultured two hours with chemical substance, DNA chip fluorescence ratio to control) was 0.8. The “The level of expressed mRNA in the presence of chemical substance/The level of expressed mRNA in the absence of chemical substance, yeast gene YPL134C” value (gene YPL134C (mitochondria-located protein gene), yeast cultured two hours with chemical substance, DNA chip fluorescence ratio to control) was 1.6, the “The level of expressed mRNA in the presence of chemical substance/The level of expressed mRNA in the absence of chemical substance, yeast gene YPR184W” value (gene YPR184W, Metabolism protein genes, DNA chip fluorescence ratio) was 5.7 and the “level of expressed mRNA in the presence of chemical substance / level in the absence of chemical substance” value (yeast gene YAL018C) was 1.1. The “The level of expressed mRNA in the presence of chemical substance/The level of expressed mRNA in the absence of chemical substance” value (yeast gene YAL053W) was 1.3, the “level of expressed mRNA in the presence of chemical substance / level in the absence of chemical substance” value (yeast gene YAR047C) was 1.5 and the “level of expressed mRNA in the presence of chemical substance / level in the absence of chemical substance” value (yeast gene YAR064W) was 0.9. For the same compound, the “level of expressed mRNA in the presence of chemical substance / level in the absence of chemical substance” value (yeast gene YBL044W) was 2.1, the “The level of expressed mRNA in the presence of chemical substance/The level of expressed mRNA in the absence of chemical substance” value (yeast gene YBL048W) was 2.3 and the “The level of expressed mRNA in the presence of chemical substance/The level of expressed mRNA in the absence of chemical substance” value (yeast gene YBL107C) was 0.4. For the same compound, the “level of expressed mRNA in the presence of chemical substance / level in the absence of chemical substance” value (yeast gene YBR012C) was 1.3, the “level of expressed mRNA in the presence of chemical substance / level in the absence of chemical substance” value (yeast gene YBR066C) was 1.6 and the “level of expressed mRNA in the presence of chemical substance / level in the absence of chemical substance” value (yeast gene YBR124W) was 1.5. The “level of expressed mRNA in the presence of chemical substance / level in the absence of chemical substance” value (yeast gene YBR162C) was 3.1, the “level of expressed mRNA in the presence of chemical substance / level in the absence of chemical substance” value (yeast gene YBR287W) was 3.1 and the “level of expressed mRNA in the presence of chemical substance / level in the absence of chemical substance” value (yeast gene YCL042W) was 7.2. The “level of expressed mRNA in the presence of chemical substance / level in the absence of chemical substance” value (yeast gene YCL056C) was 0.7, the “level of expressed mRNA in the presence of chemical substance / level in the absence of chemical substance” value (yeast gene YCR007C) was 0.9 and the “level of expressed mRNA in the presence of chemical substance / level in the absence of chemical substance” value (yeast gene YDL046W) was 5.1. For the same compound, the “The level of expressed mRNA in the presence of chemical substance/The level of expressed mRNA in the absence of chemical substance” value (yeast gene YDL072C) was 3.5, the “The level of expressed mRNA in the presence of chemical substance/The level of expressed mRNA in the absence of chemical substance” value (yeast gene YDL204W) was 4.8 and the “The level of expressed mRNA in the presence of chemical substance/The level of expressed mRNA in the absence of chemical substance” value (yeast gene YDL222C) was 1.5. For the same compound, the “level of expressed mRNA in the presence of chemical substance / level in the absence of chemical substance” value (yeast gene YDR090C) was 0.8.
